Experimental data: patent US20240294498A1, “FACTOR XIIA INHIBITORS” (Lunac Therapeutics Ltd, priority 2021, published 2024)
pKi: −log10 of the molar value.

Columns and labels:
Assay type in all cases: biochemical
[1] = molecular target: T1, FXIIa (Homo sapiens, UniProt P00748); test: Determination of Factor XIIa inhibition (chromogenic substrate S-2302); conditions: human FXIIa alpha, Ki category
T1 construct: FXIIa alpha
T1 sequence (P00748 373-615 limits assumed): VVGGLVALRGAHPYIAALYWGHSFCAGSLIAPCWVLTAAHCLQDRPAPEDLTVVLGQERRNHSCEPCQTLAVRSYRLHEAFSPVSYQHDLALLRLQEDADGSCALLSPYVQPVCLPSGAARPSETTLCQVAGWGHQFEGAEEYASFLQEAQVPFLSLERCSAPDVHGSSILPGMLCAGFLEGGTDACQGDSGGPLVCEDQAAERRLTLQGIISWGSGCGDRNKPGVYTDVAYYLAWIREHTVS
T1 sequence (P00748 20-372 partner limits assumed): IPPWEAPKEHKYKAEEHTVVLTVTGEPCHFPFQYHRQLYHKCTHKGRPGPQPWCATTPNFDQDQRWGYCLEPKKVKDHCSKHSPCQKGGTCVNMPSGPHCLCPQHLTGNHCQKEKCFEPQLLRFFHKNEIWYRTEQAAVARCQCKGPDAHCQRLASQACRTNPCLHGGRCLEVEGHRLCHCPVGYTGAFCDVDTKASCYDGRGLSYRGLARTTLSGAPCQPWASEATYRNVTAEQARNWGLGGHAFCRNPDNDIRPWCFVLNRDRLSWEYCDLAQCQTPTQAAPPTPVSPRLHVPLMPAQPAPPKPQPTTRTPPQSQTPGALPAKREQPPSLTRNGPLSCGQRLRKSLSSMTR
How it was run: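 Compound preincubated with 10 nM FXIIa for 10 min at 37° C in 50 mM Tris, 137 mM NaCl, pH 7.4, 5% DMSO, top concentration 500 μM; S-2302 added at Km. pNA release followed at 405 nm for 3 h; IC50 from initial rates, converted to Ki via Ki = IC50/(1+[S]/Km).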

[2] = molecular target: FXa (Homo sapiens, UniProt P00742); test: Determination of selectivity: FXa inhibition (chromogenic substrate S2765); conditions: fold selectivity for FXIIa over FXa (human); category
Chain of FXa (P00742 235-488 limits assumed): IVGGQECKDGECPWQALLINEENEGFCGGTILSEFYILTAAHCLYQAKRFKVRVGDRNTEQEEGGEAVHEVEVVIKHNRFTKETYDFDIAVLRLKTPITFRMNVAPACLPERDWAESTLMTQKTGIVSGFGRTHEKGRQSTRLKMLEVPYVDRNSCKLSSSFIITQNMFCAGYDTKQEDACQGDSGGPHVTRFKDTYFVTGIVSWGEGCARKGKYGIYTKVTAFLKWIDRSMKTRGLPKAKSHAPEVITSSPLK
Chain of FXa (P00742 41-179 partner limits assumed): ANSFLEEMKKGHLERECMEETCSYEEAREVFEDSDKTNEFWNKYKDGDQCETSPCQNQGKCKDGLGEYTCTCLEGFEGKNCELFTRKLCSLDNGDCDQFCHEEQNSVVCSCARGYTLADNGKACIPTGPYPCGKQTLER
How it was run: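 FXa (5 nM) preincubated with increasing compound (top 500 μM) for 10 mins at 37° C in 50 mM Tris, 137 mM NaCl pH 7.4, 5% DMSO, then S2765 added at its KM. Absorbance at 405 nm followed kinetically for 3 hours; IC50 from initial rates, converted to Ki by Cheng-Prusoff.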

[3] = molecular target: T2, thrombin (Homo sapiens, UniProt P00734); test: Determination of selectivity: thrombin inhibition (chromogenic substrate GPR); conditions: fold selectivity for FXIIa over thrombin (human); category
T2 construct: FXa (5 nM) and thrombin (5 nM)
How it was run: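 Thrombin (5 nM) preincubated with increasing compound concentrations (top 500 μM, 5% DMSO) 10 min at 37 °C in 50 mM Tris, 137 mM NaCl pH 7.4, then GPR chromogenic substrate at its KM. pNA release read kinetically at 405 nm for 3 h at 37 °C. IC50 from initial rates, converted to Ki via Cheng–Prusoff.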

SMILES	pKi [1]	FXa (human)/FXIIa alpha (human) [2]	Thrombin (human)/FXIIa alpha (human) [3]
Cn1ncc2cc(CNC(=O)[C@@H]3C[C@@H](Cc4ccccc4C(F)(F)F)CN3C(=O)[C@@H]3NCCC[C@@H]3C(=O)N3CCCC3)ccc21 [Example M05809, (2S,4R)-N-((1-methyl-1H-indazol-5-yl)methyl)-1-((2R,3S)-3-(pyrrolidine-1-carbonyl)piperidine-2-carbonyl)-4-(2-(trifluoromethyl)benzyl)pyrrolidine-2-carboxamide]	6.10 to 6.70	∘∘∘	+++ (fold selectivity values greater than 100)
COc1nn(C)c2ccc(CNC(=O)[C@@H]3C[C@@H](Cc4ccc(C)cc4)CN3C(=O)[C@@H]3NCCC[C@@H]3C(=O)N3CCCC3)cc12 [Example M05810, (2S,4R)-N-((3-methoxy-1-methyl-1H-indazol-5-yl)methyl)-4-(4-methylbenzyl)-1-((2R,3S)-3-(pyrrolidine-1-carbonyl)piperidine-2-carbonyl)pyrrolidine-2-carboxamide]	5.30 to 6.10	∘∘	++ (a fold selectivity value of 10 to 100)
Cn1ncc2cc(CNC(=O)[C@@H]3C[C@@H](Cc4ccncc4)CN3C(=O)[C@@H]3NCCC[C@@H]3C(=O)N3CCCC3)ccc21 [Example M05811, (2S,4R)-N-((1-methyl-1H-indazol-5-yl)methyl)-4-(pyridin-4-ylmethyl)-1-((2R,3S)-3-(pyrrolidine-1-carbonyl)piperidine-2-carbonyl)pyrrolidine-2-carboxamide]	5.30 to 6.10	∘∘∘	++ (a fold selectivity value of 10 to 100)
Cn1ncc2cc(CNC(=O)[C@@H]3C[C@@H](Cc4cccc(C(F)(F)F)c4)CN3C(=O)[C@@H]3NCCC[C@@H]3C(=O)N3CCCC3)ccc21 [Example M05836, (2S,4R)-N-((1-methyl-1H-indazol-5-yl)methyl)-1-((2R,3S)-3-(pyrrolidine-1-carbonyl)piperidine-2-carbonyl)-4-(3-(trifluoromethyl)benzyl)pyrrolidine-2-carboxamide]	5.30 to 6.10	∘∘∘	+++ (fold selectivity values greater than 100)
Cc1ccc(C[C@@H]2C[C@@H](C(=O)NCC3CCn4c(nnc4C(F)(F)F)C3)N(C(=O)[C@@H]3NCCC[C@@H]3C(=O)N3CCCC3)C2)cc1 (stereo partly drawn) [Example M05851]	5.30 to 6.10	∘∘∘	+++ (fold selectivity values greater than 100)
Cn1ncc2cc(CNC(=O)[C@@H]3C[C@@H](Cc4ccc(Cl)cc4)CN3C(=O)[C@@H]3NCCC[C@@H]3C(=O)N3CCCC3)ccc21 [Example M05854, (2S,4R)-4-(4-chlorobenzyl)-N-((1-methyl-1H-indazol-5-yl)methyl)-1-((2R,3S)-3-(pyrrolidine-1-carbonyl)piperidine-2-carbonyl)pyrrolidine-2-carboxamide]	6.10 to 6.70	∘∘∘	+++ (fold selectivity values greater than 100)
Cc1ccc(C[C@@H]2C[C@@H](C(=O)NCc3ccn4c(C)nnc4c3)N(C(=O)[C@@H]3NCCC[C@@H]3C(=O)N3CCCC3)C2)cc1 [Example M05855, (2S,4R)-N-((3-methyl-[1,2,4]triazolo[4,3-a]pyridin-7-yl)methyl)-4-(4-methylbenzyl)-1-((2R,3S)-3-(pyrrolidine-1-carbonyl)piperidine-2-carbonyl)pyrrolidine-2-carboxamide]	6.10 to 6.70	∘∘∘	+++ (fold selectivity values greater than 100)
Cc1ccc(C[C@@H]2C[C@@H](C(=O)NCC3CCc4c(cnn4C)C3)N(C(=O)[C@@H]3NCCC[C@@H]3C(=O)N3CCCC3)C2)cc1 (stereo partly drawn) [Example M05874, (2S,4R)-N-((1-methyl-4,5,6,7-tetrahydro-1H-indazol-5-yl)methyl)-4-(4-methylbenzyl)-1-((2R,3S)-3-(pyrrolidine-1-carbonyl)piperidine-2-carbonyl)pyrrolidine-2-carboxamide]	6.10 to 6.70	∘∘∘	+++ (fold selectivity values greater than 100)

Second part, led by results:

pKi [1]	FXa (human)/FXIIa alpha (human) [2]	SMILES	Thrombin (human)/FXIIa alpha (human) [3]
> 6.70	∘∘∘	[2H]C([2H])([2H])n1ncc2cc(CNC(=O)[C@@H]3C[C@@H](Cc4ccc(C)cc4)CN3C(=O)[C@@H]3NCCC[C@@H]3C(=O)N3CCCC3)ccc21 [Example M05820, (2S,4R)-N-((1-(methyl-d3)-1H-indazol-5-yl)methyl)-4-(4-methylbenzyl)-1-((2R,3S)-3-(pyrrolidine-1-carbonyl)piperidine-2-carbonyl)pyrrolidine-2-carboxamide]	+++ (fold selectivity values greater than 100)
> 6.70	∘∘∘	CO[C@H]1CCN(C(=O)[C@H]2CCCN[C@H]2C(=O)N2C[C@H](Cc3ccc(C)cc3)C[C@H]2C(=O)NCc2ccc3c(cnn3C)c2)C1 [Example M05837, (2S,4R)-1-((2R,3S)-3-((S)-3-methoxypyrrolidine-1-carbonyl)piperidine-2-carbonyl)-N-((1-methyl-1H-indazol-5-yl)methyl)-4-(4-methylbenzyl)pyrrolidine-2-carboxamide]	+++ (fold selectivity values greater than 100)
> 6.70	∘∘∘	Cc1ccc(C[C@@H]2C[C@@H](C(=O)NCc3ccc4c(cnn4C)c3)N(C(=O)[C@@H]3NCCC[C@@H]3C(=O)N3CCCN(C)CC3)C2)cc1 [Example M05840, (2S,4R)-1-((2R,3S)-3-(4-methyl-1,4-diazepane-1-carbonyl)piperidine-2-carbonyl)-N-((1-methyl-1H-indazol-5-yl)methyl)-4-(4-methylbenzyl)pyrrolidine-2-carboxamide]	+++ (fold selectivity values greater than 100)
> 6.70	∘∘∘	CCO[C@H]1CCN(C(=O)[C@H]2CCCN[C@H]2C(=O)N2C[C@H](Cc3ccc(C)cc3)C[C@H]2C(=O)NCc2ccc3c(cnn3C)c2)C1 [Example M05853, (2S,4R)-1-((2R,3S)-3-((S)-3-ethoxypyrrolidine-1-carbonyl)piperidine-2-carbonyl)-N-((1-methyl-1H-indazol-5-yl)methyl)-4-(4-methylbenzyl)pyrrolidine-2-carboxamide]	+++ (fold selectivity values greater than 100)
> 6.70	∘∘∘	Cn1nnc2cc(CNC(=O)[C@@H]3C[C@@H](Cc4ccc(C(F)(F)F)nc4)CN3C(=O)[C@@H]3NCCC[C@@H]3C(=O)N3CCCC3)ccc21 [Example M05863, (2S,4R)-N-((1-methyl-1H-benzo[d][1,2,3]triazol-5-yl)methyl)-1-((2R,3S)-3-(pyrrolidine-1-carbonyl)piperidine-2-carbonyl)-4-((6-(trifluoromethyl)pyridin-3-yl)methyl)pyrrolidine-2-carboxamide]	+++ (fold selectivity values greater than 100)
